Measured values: article PMC5430599, “Antiplasmodial dihetarylthioethers target the coenzyme A synthesis pathway in Plasmodium falciparum erythrocytic stages” (Malaria Journal, 2017)

Columns and labels:
[1] = tested on: human embryonic kidney (HEK-293) cells; assay: Cytotoxicity assay: human HEK-293 cell line (resazurin); format: cell-based; conditions: for IC50: Homo sapiens, HEK293, cytotoxicity, 72 h, read-out: IC50 [µM], HEK-293
Description: Cytotoxicity against human embryonic kidney (HEK-293) cells was assessed as previously described. […] Cells were detached using Accutase treatment, then seeded into black clear-bottom 384-wells fluorescence microplates (Greiner), at a cell density of 44,000 cells/mL in 45 µL/well, using a Benchtop liquid dispenser (Thermo Fisher Multidrop). After seeding, the cells were brought back to the incubator and allowed to settle and reattach overnight. […] Plates were incubated at the standard condition above for 72 h. At the end of the incubation the medium in each well was replaced with 1 mM resazurin, and the plates were read using a multilabel microplate reader (PerkinElmer Envision) at 530 nm excitation and 595 nm emission wavelengths after a further 6 h incubation. Inhibition data was generated using Office Excel 2013 (Microsoft). IC50 values were calculated by fitting a four-parameter nonlinear regression model using Prism v.6.0 (Graphpad Software Inc., La Jolla, CA, USA).

[2] = tested on: asexual erythrocytic stages of transgenic NF54-luc P. falciparum; assay: Luciferase-based viability screening for anti-malarial activity; format: cell-based, Plasmodium falciparum; conditions: >50% inhibition of viability rated active; for inhibition at 3 µM: Plasmodium falciparum, NF54, 48 h, read-out: % inhibition, PfNF54-Luc at 3 µM, 3 µM, 48 h
Description: Asexual erythrocytic stages of transgenic NF54-luc P. falciparum were used for the luciferase-based viability assay. These parasites constitutively express high levels of luciferase. The parasites were cultured as described previously. Parasite culture with parasitaemia of 0.5–1% was dispensed in triplicate into white 96-well flat-bottom plates (each well contains 250 µL) (NUNC, Roskilde, […], 90% N2, 5% CO2, and 5% O2). 0.01% DMSO was included in the untreated infected RBC cultures as negative control, since the compounds stock initially was diluted in DMSO and each treatment well also contained 0.01% DMSO. Subsequently, 100 µL RPMI1640 media was removed from each well and a 100 µL volume of the Bright-Glo® substrate solution added to each well. The resultant cleavage product of the reaction, light, was measured using a FLUOROSKAN FL luminometer (Thermo), to ascertain viable parasites. Untreated cultures were used as negative controls and to calculate the inhibition rate (0% inhibition of parasite growth). Blasticidin (Sigma-Aldrich, St. Louis, MO, USA), used for selection of transfected parasites, was included as a positive control on each plate and gave >90% inhibition of parasite growth at concentration 2 µg/mL. Compounds with >50% inhibition of viability were rated as actives. Experiments were performed in triplicate and were repeated at least twice.

| Structure (SMILES) | IC50 [1] [µM] | inhibition at 3 µM [2] [%] | selectivity HEK-293 vs 3D7 parasites ([1]; IC50 HEK-293 / IC50 3D7) [fold] | % inhibition, PfNF54-Luc at 3 µM ([2]; 3 µM, 48 h) [%] |
| --- | --- | --- | --- | --- |
| Nc1nnc(Sc2ncnc3sccc23)s1 [Compound 8f] | > 4 | 99.7 ± 0.1 |  |  |
| c1coc(Sc2ncnc3sccc23)n1 [Compound 8e] | > 10 | 99.5 ± 0.5 | > 133 |  |
| c1cnc2[nH]c(Sc3ncnc4sccc34)nc2c1 [Compound 8k] | > 20 | 98 ± 0.2 |  |  |
| c1csc(Sc2ncnc3sccc23)n1 [Compound 8d] | > 10 | 99.9 |  |  |
| Cn1ccnc1Sc1ncnc2sccc12 [Compound 8c] | > 40 | 96.5 ± 1.6 |  |  |
| c1ccc2[nH]c(Sc3ncnc4sccc34)nc2c1 [Compound 8g] | > 10 | 95 ± 1.1 |  |  |
| c1coc(-c2nnc(Sc3ncnc4sccc34)o2)c1 [Compound 3a] | > 10 | 80 |  | 80.8 ± 0.5 |
